Source: patent US20220251163A1 (Sinopep-Allsino Biopharmaceutical Co., Ltd., priority 2019, published 2022)
Where two headings read alike, the source gives them in different places. *1 amine or outer side, *2 acyl side, *3 side chain or, on linkers, in order; H or OH if unused. Where a SMILES comes first, the peptide text is derived from it. Side-chain parts run from the residue outwards. [ ]: non-standard residue; d: D form. The star is where a group is joined. C18 diacid = O=C(O)CCCCCCCCCCCCCCCCC(=O)*; γGlu = O=C(O)[C@H](CCC(=O)[*:2])N[*:1]; AEEA = NCCOCCOCC(=O)O; Aib = CC(C)(N)C(=O)O

Key:
mGIPR = molecular target: T1, mGIPR (Mus musculus, UniProt Q0P543); experiment: GIPR agonist activity, cAMP in transfected HEK293 cells; assay type: cell-based
T1 construct: expressed in transfected cells; host or cells: HEK293
T1 sequence (Q0P543 19-460): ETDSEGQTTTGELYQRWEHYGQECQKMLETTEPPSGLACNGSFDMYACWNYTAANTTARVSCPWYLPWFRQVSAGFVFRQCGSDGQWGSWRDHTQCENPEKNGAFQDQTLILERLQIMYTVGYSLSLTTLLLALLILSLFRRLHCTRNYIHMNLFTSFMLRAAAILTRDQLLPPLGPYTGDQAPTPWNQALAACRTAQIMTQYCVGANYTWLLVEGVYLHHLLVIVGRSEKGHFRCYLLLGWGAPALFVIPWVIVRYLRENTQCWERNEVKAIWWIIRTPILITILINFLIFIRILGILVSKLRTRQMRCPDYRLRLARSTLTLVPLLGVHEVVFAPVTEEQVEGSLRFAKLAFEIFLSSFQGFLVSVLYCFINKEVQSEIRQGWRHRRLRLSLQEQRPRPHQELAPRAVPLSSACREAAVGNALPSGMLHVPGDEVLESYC
Protocol: HEK293 cells were co-transfected with cDNA encoding GLP-1R or GIPR. In a test for determining the compound, the cells were inoculated in a 96-well plate 2 h in advance, the polypeptide compound was dissolved with DMSO, and diluted to different multiples with a culture medium containing 0.1% bovine serum albumin and added to the co-transfected cells.

ob/ob mice = experiment: Blood glucose reducing experiment, single subcutaneous injection in ob/ob mice; assay type: in vivo; settings: 100 μg/kg single s.c.; for Blood glucose at different time after administration, 0 h: 0 h (before administration); for Blood glucose at different time after administration, 0 h / Blood glucose at different time after administration, 2 h / Blood glucose at different time after administration, 4 h / Blood glucose at different time after administration, 6 h / Blood glucose at different time after administration, 10 h / Blood glucose at different time after administration, 24 h / Blood glucose at different time after administration, 34 h / AUC0-24 h Glu: X ± s, n = 7; for AUC0-24 h Glu: blood glucose curve area within 24 h; for AUC0-24 h Glu Decrease rate: versus model control group;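 on all read-outs here: random blood glucose read at each time point, decrease rate given as percentage fall versus the model control group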
Protocol: The mice in each group received random blood glucose value measurement before (0 h) administration and 2, 4, 6, 10 and 24 h after administration, and then the time for measuring the random blood glucose was adjusted and prolonged to 34, 48, 58 or 72 h after administration according to the blood glucose condition of the mice in each group. Meanwhile, the random weight of the mice in each group before (0 h) administration and 24 h after administration was weighed, and then the random weight of the mice corresponding to the random blood glucose measurement condition 48 or 72 h after administration was weighed. The blood glucose decrease rate, the blood glucose curve area (AUC0-24 h Glu) within 24 h after administration and the decrease rate were calculated according to the following formula.
Blood glucose decrease rate=(blood glucose in the model control group−blood glucose in the administration group)/blood glucose in the model control group×100%
BG0, BG2, BG4, BG6, BG10 and BG24 represented the blood glucose values before administration (0 h) and 2, 4, 6, 10 and 24 h after administration respectively.
AUC0-24 h Glu(mmol/Lh·r) decrease rate=(model control group AUC0-24 h Glu−administration group AUC0-24 h Glu/model control group AUC0-24 h Glu×100%
Experiments were carried out twice, at an interval of 8-10 days.

mGLP-1R = molecular target: T2, mGLP-1R (Mus musculus, UniProt O35659); experiment: GLP-1R agonist activity, cAMP in transfected HEK293 cells; assay type: cell-based
T2 construct: expressed in transfected cells; host or cells: HEK293
T2 sequence (O35659 22-463): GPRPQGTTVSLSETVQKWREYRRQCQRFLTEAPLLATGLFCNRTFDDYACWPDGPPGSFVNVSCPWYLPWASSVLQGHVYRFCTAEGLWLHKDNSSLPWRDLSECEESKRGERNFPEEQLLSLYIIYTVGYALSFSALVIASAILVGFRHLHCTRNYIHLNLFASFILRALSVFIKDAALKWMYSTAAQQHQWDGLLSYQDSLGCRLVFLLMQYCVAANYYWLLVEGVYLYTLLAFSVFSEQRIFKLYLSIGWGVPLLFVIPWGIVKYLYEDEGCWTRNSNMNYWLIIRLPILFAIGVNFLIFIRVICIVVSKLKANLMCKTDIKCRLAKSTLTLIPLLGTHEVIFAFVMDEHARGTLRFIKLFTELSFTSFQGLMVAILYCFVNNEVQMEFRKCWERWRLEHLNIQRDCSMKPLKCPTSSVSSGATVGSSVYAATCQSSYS
Protocol: HEK293 cells were co-transfected with cDNA encoding GLP-1R or GIPR. In a test for determining the compound, the cells were inoculated in a 96-well plate 2 h in advance, the polypeptide compound was dissolved with DMSO, and diluted to different multiples with a culture medium containing 0.1% bovine serum albumin and added to the co-transfected cells. After the cells were incubated for 20 min, fluorescence values were determined through microplate reader of an ELISA kit of the Cisbo Company, a standard curve was established to convert the fluorescence values into corresponding cAMP values, and the EC50 value of the compound was calculated through nonlinear regression of Graphpad Prism 5.0 software.

[1] = Effect on random weight of ob/ob mice after single subcutaneous injection; assay type: in vivo; settings: 100 μg/kg single s.c., X ± s, n = 7

CC[C@H](C)[C@H](NC(=O)[C@H](CCCCN)NC(=O)[C@H](CC(=O)O)NC(=O)[C@H](CC(C)C)NC(=O)[C@H](C)NC(=O)[C@@H](NC(=O)[C@H](CO)NC(=O)[C@H](Cc1ccc(O)cc1)NC(=O)[C@H](CC(=O)O)NC(=O)[C@H](CO)NC(=O)[C@@H](NC(=O)[C@H](Cc1ccccc1)NC(=O)[C@@H](NC(=O)CNC(=O)[C@H](CCC(=O)O)NC(=O)[C@H](C)NC(=O)[C@@H](N)Cc1ccc(O)cc1)[C@@H](C)O)[C@@H](C)O)[C@@H](C)CC)C(=O)N[C@@H](C)C(=O)N[C@@H](CCC(N)=O)C(=O)N[C@@H](CCCCNC(=O)COCCOCCNC(=O)COCCOCCNC(=O)CC[C@H](NC(=O)CCCCCCCCCCCCCCCCC(=O)O)C(=O)O)C(=O)N[C@@H](C)C(=O)N[C@@H](Cc1ccccc1)C(=O)N[C@H](C(=O)N[C@@H](CCC(N)=O)C(=O)N[C@@H](Cc1c[nH]c2ccccc12)C(=O)N[C@@H](CC(C)C)C(=O)N[C@H](C(=O)N[C@@H](C)C(=O)NCC(=O)NCC(=O)N1CCC[C@H]1C(=O)N[C@@H](CO)C(=O)N[C@@H](CO)C(=O)NCC(=O)N[C@@H](C)C(=O)N1CCC[C@H]1C(=O)N1CCC[C@H]1C(=O)N1CCC[C@H]1C(=O)N[C@@H](CO)C(N)=O)[C@@H](C)CC)C(C)C [ID NO: 4]
EC50 (mGIPR): 5.21 pM
Blood glucose at different time after administration, 0 h (ob/ob mice): 20.43 ± 0.68 mmol/L
Decrease rate of blood glucose at different time after administration, 2 h (ob/ob mice): 50.0%
Blood glucose at different time after administration, 2 h (ob/ob mice): 10.21 ± 1.06 mmol/L
Decrease rate of blood glucose at different time after administration, 4 h (ob/ob mice): 51.6%
Blood glucose at different time after administration, 4 h (ob/ob mice): 9.89 ± 0.83 mmol/L
Decrease rate of blood glucose at different time after administration, 6 h (ob/ob mice): 52.9%
Blood glucose at different time after administration, 6 h (ob/ob mice): 9.63 ± 0.95 mmol/L
Decrease rate of blood glucose at different time after administration, 10 h (ob/ob mice): 51.7%
Blood glucose at different time after administration, 10 h (ob/ob mice): 9.86 ± 0.96 mmol/L
Decrease rate of blood glucose at different time after administration, 24 h (ob/ob mice): 46.1%
Blood glucose at different time after administration, 24 h (ob/ob mice): 11.01 ± 0.83 mmol/L
Decrease rate of blood glucose at different time after administration, 34 h (ob/ob mice): 28.7%
Blood glucose at different time after administration, 34 h (ob/ob mice): 14.56 ± 1.42 mmol/L
Decrease rate of blood glucose at different time after administration, 48 h (ob/ob mice): 15.2%
AUC0-24 h Glu (ob/ob mice): 255.33 ± 20.13 mmol·h/L
AUC0-24 h Glu Decrease rate (ob/ob mice): 50.0%
EC50 (mGLP-1R): 1.49 pM
Changes of random body weight at different time after administration, 0 h [1]: 0.0 ± 0.0 g
Random body weight at different time after administration, 0 h [1]: 43.6 ± 1.0 g
Changes of random body weight at different time after administration, 24 h [1]: -1.4 ± 0.2 g
Random body weight at different time after administration, 24 h [1]: 42.2 ± 1.0 g
Changes of random body weight at different time after administration, 48 h [1]: -0.6 ± 0.1 g
Random body weight at different time after administration, 48 h [1]: 42.9 ± 1.1 g

CC[C@H](C)[C@H](NC(=O)[C@H](CC(C)C)NC(=O)[C@H](Cc1c[nH]c2ccccc12)NC(=O)[C@H](CCC(N)=O)NC(=O)[C@@H](NC(=O)[C@H](Cc1ccccc1)NC(=O)[C@H](C)NC(=O)[C@H](CCCCNC(=O)COCCOCCNC(=O)COCCOCCNC(=O)CC[C@H](NC(=O)CCCCCCCCCCCCCCCCC(=O)O)C(=O)O)NC(=O)[C@H](CCC(N)=O)NC(=O)[C@H](C)NC(=O)[C@@H](NC(=O)[C@H](CCCCN)NC(=O)[C@H](CC(=O)O)NC(=O)[C@H](CC(C)C)NC(=O)C(C)(C)NC(=O)[C@@H](NC(=O)[C@H](CO)NC(=O)[C@H](Cc1ccc(O)cc1)NC(=O)[C@H](CC(=O)O)NC(=O)[C@H](CO)NC(=O)[C@@H](NC(=O)[C@H](Cc1ccccc1)NC(=O)[C@@H](NC(=O)CNC(=O)[C@H](CCC(=O)O)NC(=O)[C@H](C)NC(=O)[C@@H](N)Cc1ccc(O)cc1)[C@@H](C)O)[C@@H](C)O)[C@@H](C)CC)[C@@H](C)CC)C(C)C)C(=O)N[C@@H](C)C(=O)NCC(=O)NCC(=O)N1CCC[C@H]1C(=O)N[C@@H](CO)C(=O)N[C@@H](CO)C(=O)NCC(=O)N[C@@H](C)C(=O)N1CCC[C@H]1C(=O)N1CCC[C@H]1C(=O)N1CCC[C@H]1C(=O)N[C@@H](CO)C(N)=O [ID NO: 5] (H-YAEGTFTSDYSI[Aib]LDKIAQK([AEEA-AEEA-γGlu-C18 diacid])AFVQWLIAGGPSSGAPPPS-NH2)
EC50 (mGIPR; HEK293 cells transfected with GIPR, cAMP, 20 min incubation, read-out: mGIPR EC50): 6.4 pM
Blood glucose at different time after administration, 0 h (ob/ob mice): 20.57 ± 0.84 mmol/L
Decrease rate of blood glucose at different time after administration, 2 h (ob/ob mice): 50.8%
Blood glucose at different time after administration, 2 h (ob/ob mice): 10.12 ± 1.20 mmol/L
Decrease rate of blood glucose at different time after administration, 4 h (ob/ob mice): 53.6%
Blood glucose at different time after administration, 4 h (ob/ob mice): 9.54 ± 0.84 mmol/L
Decrease rate of blood glucose at different time after administration, 6 h (ob/ob mice): 54.2%
Blood glucose at different time after administration, 6 h (ob/ob mice): 9.43 ± 0.86 mmol/L
Decrease rate of blood glucose at different time after administration, 10 h (ob/ob mice): 52.6%
Blood glucose at different time after administration, 10 h (ob/ob mice): 9.76 ± 0.96 mmol/L
Decrease rate of blood glucose at different time after administration, 24 h (ob/ob mice): 47.1%
Blood glucose at different time after administration, 24 h (ob/ob mice): 10.89 ± 1.43 mmol/L
Decrease rate of blood glucose at different time after administration, 34 h (ob/ob mice): 35.2%
Blood glucose at different time after administration, 34 h (ob/ob mice): 13.33 ± 2.10 mmol/L
Decrease rate of blood glucose at different time after administration, 48 h (ob/ob mice): 15.8%
AUC0-24 h Glu (ob/ob mice): 252.25 ± 19.68 mmol·h/L
AUC0-24 h Glu Decrease rate (ob/ob mice): 50.6%
EC50 (mGLP-1R; HEK293 cells transfected with GLP-1R, cAMP, 20 min incubation, read-out: mGLP-1R EC50): 2.99 pM
Changes of random body weight at different time after administration, 0 h [1]: 0.0 ± 0.0 g
Random body weight at different time after administration, 0 h [1]: 43.5 ± 0.9 g
Changes of random body weight at different time after administration, 24 h [1]: -1.4 ± 0.2 g
Random body weight at different time after administration, 24 h [1]: 42.0 ± 0.9 g
Changes of random body weight at different time after administration, 48 h [1]: -0.6 ± 0.2 g
Random body weight at different time after administration, 48 h [1]: 42.9 ± 0.9 g
